{"source": "paper PMC5218480", "about": "(PLoS ONE, 2017)", "system": "MV-4-11 cells", "assay": "Gene expression microarray analysis (Affymetrix PrimeView) and GSEA", "format": "cell-based, human", "design": "RFU PODN (11730768_x_at) / Fold change /veh PODN (11730768_x_at) / RFU LINC00158 (11744669_a_at) / Fold change /veh LINC00158 (11744669_a_at) / RFU DUSP10 (11751237_a_at) / Fold change /veh DUSP10 (11751237_a_at) / RFU ID3 (11757404_x_at) / Fold change /veh ID3 (11757404_x_at) / RFU PLEKHG5 (11737974_s_at) / Fold change /veh PLEKHG5 (11737974_s_at) / RFU LRRC4B (11730491_at) / Fold change /veh LRRC4B (11730491_at) / RFU GIMAP4 (11747438_a_at) / Fold change /veh GIMAP4 (11747438_a_at) / RFU KRT8 (11758183_x_at) / Fold change /veh KRT8 (11758183_x_at) / RFU CNN1 (11734310_a_at) / Fold change /veh CNN1 (11734310_a_at) / RFU VPS37D (11726825_at) / Fold change /veh VPS37D (11726825_at) / RFU C10orf10 (11716522_x_at) / Fold change /veh C10orf10 (11716522_x_at) / RFU KIR2DL2 /// KIR2DL4 /// KIR2DL5A /// KIR2DL5B /// KIR2DS1 /// KIR2DS2 /// KIR2DS3 /// KIR2DS4 /// KIR3DL3 /// KIR3DL3 /// KIR3DS1 (11738374_at) / Fold change /veh KIR2DL2 /// KIR2DL4 /// KIR2DL5A /// KIR2DL5B /// KIR2DS1 /// KIR2DS2 /// KIR2DS3 /// KIR2DS4 /// KIR3DL3 /// KIR3DL3 /// KIR3DS1 (11738374_at) / RFU C1QL1 (11718748_at) / Fold change /veh C1QL1 (11718748_at) / RFU TMPRSS4 (11747572_a_at) / Fold change /veh TMPRSS4 (11747572_a_at) / RFU HAMP (11756126_x_at) / Fold change /veh HAMP (11756126_x_at) / RFU RNFT2 (11725882_a_at) / Fold change /veh RNFT2 (11725882_a_at) / RFU NR4A2 (11747474_a_at) / Fold change /veh NR4A2 (11747474_a_at) / RFU ABCC12 (11746883_a_at) / Fold change /veh ABCC12 (11746883_a_at) / RFU TMEM136 (11760407_x_at) / Fold change /veh TMEM136 (11760407_x_at) / RFU CLDN22 /// WWC2 (11732394_at) / Fold change /veh CLDN22 /// WWC2 (11732394_at) / RFU HLA-DPB1 (11760878_x_at) / Fold change /veh HLA-DPB1 (11760878_x_at) / RFU SPINT1 (11716480_a_at) / Fold change /veh SPINT1 (11716480_a_at) / RFU GAP43 (11754022_s_at) / Fold change /veh GAP43 (11754022_s_at) / RFU A4GNT (11735810_at) / Fold change /veh A4GNT (11735810_at) / RFU PRB3 (11715151_x_at) / Fold change /veh PRB3 (11715151_x_at) / RFU TUBB4B (11761932_at) / Fold change /veh TUBB4B (11761932_at) / RFU CAPN14 (11732068_a_at) / Fold change /veh CAPN14 (11732068_a_at) / RFU TMCC2 (11721928_a_at) / Fold change /veh TMCC2 (11721928_a_at) / RFU IRGQ (11745062_a_at) / Fold change /veh IRGQ (11745062_a_at) / RFU FAM174B (11720279_a_at) / Fold change /veh FAM174B (11720279_a_at) / RFU TMPRSS4 (11748680_a_at) / Fold change /veh TMPRSS4 (11748680_a_at) / RFU FAM212B (11763350_a_at) / Fold change /veh FAM212B (11763350_a_at) / RFU PLEKHG5 (11743358_a_at) / Fold change /veh PLEKHG5 (11743358_a_at) / RFU ZSCAN30 (11745921_a_at) / Fold change /veh ZSCAN30 (11745921_a_at) / RFU CMKLR1 (11741424_a_at) / Fold change /veh CMKLR1 (11741424_a_at) / RFU LOC101060620 /// MAPK8IP1 (11723275_at) / Fold change /veh LOC101060620 /// MAPK8IP1 (11723275_at) / RFU SPTSSB (11747773_x_at) / Fold change /veh SPTSSB (11747773_x_at) / RFU PRSS12 (11739890_at) / Fold change /veh PRSS12 (11739890_at) / RFU BIN1 (11741810_x_at) / Fold change /veh BIN1 (11741810_x_at) / RFU WNT11 (11732464_a_at) / Fold change /veh WNT11 (11732464_a_at) / RFU C10orf10 (11716521_a_at) / Fold change /veh C10orf10 (11716521_a_at) / RFU C5orf56 (11738089_at) / Fold change /veh C5orf56 (11738089_at) / RFU CYB561 (11721691_x_at) / Fold change /veh CYB561 (11721691_x_at) / RFU ANKRD19P (11752326_a_at) / Fold change /veh ANKRD19P (11752326_a_at) / RFU OR2T12 /// OR2T33 /// OR2T8 (11738714_s_at) / Fold change /veh OR2T12 /// OR2T33 /// OR2T8 (11738714_s_at) / RFU VCAN (11748164_a_at) / Fold change /veh VCAN (11748164_a_at) / RFU JSRP1 (11732532_at) / Fold change /veh JSRP1 (11732532_at) / RFU KRTAP10-11 (11738290_x_at) / Fold change /veh KRTAP10-11 (11738290_x_at) / RFU MYO3A (11730013_a_at) / Fold change /veh MYO3A (11730013_a_at) / RFU EBF3 (11725865_a_at) / Fold change /veh EBF3 (11725865_a_at) / RFU CAMK2N1 (11719241_x_at) / Fold change /veh CAMK2N1 (11719241_x_at) / RFU C5orf56 (11738088_a_at) / Fold change /veh C5orf56 (11738088_a_at) / RFU OLFML3 (11715873_a_at) / Fold change /veh OLFML3 (11715873_a_at) / RFU LOC100653217 /// NTM (11731650_a_at) / Fold change /veh LOC100653217 /// NTM (11731650_a_at) / RFU MAPK11 (11762145_a_at) / Fold change /veh MAPK11 (11762145_a_at) / RFU FIZ1 (11724087_x_at) / Fold change /veh FIZ1 (11724087_x_at) / RFU OASL (11726364_x_at) / Fold change /veh OASL (11726364_x_at) / RFU SOX15 (11748057_x_at) / Fold change /veh SOX15 (11748057_x_at) / RFU CD79A (11719716_a_at) / Fold change /veh CD79A (11719716_a_at) / RFU HIST1H1D (11736915_at) / Fold change /veh HIST1H1D (11736915_at) / RFU CASKIN2 (11723855_a_at) / Fold change /veh CASKIN2 (11723855_a_at) / RFU LOC730098 (11760151_x_at) / Fold change /veh LOC730098 (11760151_x_at) / RFU OR4N2 (11742367_at) / Fold change /veh OR4N2 (11742367_at) / RFU PRRT2 (11749266_a_at) / Fold change /veh PRRT2 (11749266_a_at) / RFU SNX32 (11753110_a_at) / Fold change /veh SNX32 (11753110_a_at) / RFU CDHR5 (11726645_a_at) / Fold change /veh CDHR5 (11726645_a_at) / RFU RCAN1 (11760418_a_at) / Fold change /veh RCAN1 (11760418_a_at) / RFU FAM167A (11723789_a_at) / Fold change /veh FAM167A (11723789_a_at) / RFU FAM26E (11764081_at) / Fold change /veh FAM26E (11764081_at) / RFU ISYNA1 (11749810_s_at) / Fold change /veh ISYNA1 (11749810_s_at) / RFU ACY1 (11761880_at) / Fold change /veh ACY1 (11761880_at) / RFU 11764098_at / Fold change /veh 11764098_at / RFU SAMD14 (11745864_x_at) / Fold change /veh SAMD14 (11745864_x_at) / RFU NPB (11741838_a_at) / Fold change /veh NPB (11741838_a_at) / RFU TMPRSS6 (11731388_a_at) / Fold change /veh TMPRSS6 (11731388_a_at) / RFU KRTAP10-2 (11738614_at) / Fold change /veh KRTAP10-2 (11738614_at) / RFU ARHGAP8 /// PRR5-ARHGAP8 (11727945_x_at) / Fold change /veh ARHGAP8 /// PRR5-ARHGAP8 (11727945_x_at) / RFU KRTAP5-7 /// NADSYN1 (11734609_at) / Fold change /veh KRTAP5-7 /// NADSYN1 (11734609_at) / RFU RASL12 (11751679_a_at) / Fold change /veh RASL12 (11751679_a_at) / RFU CDKN2B (11736163_a_at) / Fold change /veh CDKN2B (11736163_a_at) / RFU PRF1 (11729649_at) / Fold change /veh PRF1 (11729649_at) / RFU, ZNF638 /// ZNF638-IT1 / Fold change vs veh, ZNF638 /// ZNF638-IT1 / RFU, PANK3 / Fold change vs veh, PANK3 / RFU, SH3YL1 / Fold change vs veh, SH3YL1 / RFU, ZEB2 / Fold change vs veh, ZEB2 / RFU, NRIP1 / Fold change vs veh, NRIP1 / RFU, PTTG1IP / Fold change vs veh, PTTG1IP / RFU, CAPN2 / Fold change vs veh, CAPN2 / RFU, MED14 / Fold change vs veh, MED14 / RFU, SNORA58 / Fold change vs veh, SNORA58 / RFU, C1orf63 / Fold change vs veh, C1orf63 / RFU, LRRFIP1 / Fold change vs veh, LRRFIP1 / RFU, NDUFAF7 / Fold change vs veh, NDUFAF7 / RFU, SLC12A2 / Fold change vs veh, SLC12A2 / RFU, IBTK / Fold change vs veh, IBTK / RFU, ESF1 / Fold change vs veh, ESF1 / Fold change vs veh, TMEM50B / RFU, TAOK1 / Fold change vs veh, TAOK1 / RFU, ACBD3 / Fold change vs veh, ACBD3 / RFU, TMA16 / Fold change vs veh, TMA16 / RFU, RWDD3 / Fold change vs veh, RWDD3 / RFU, BCAT1 / Fold change vs veh, BCAT1 / RFU, EDEM3 / Fold change vs veh, EDEM3 / RFU, TMEM33 / Fold change vs veh, TMEM33 / RFU, WDR75 / Fold change vs veh, WDR75 / RFU, AHCTF1 / Fold change vs veh, AHCTF1 / RFU, TFRC / Fold change vs veh, TFRC / RFU, ZDHHC17 / Fold change vs veh, ZDHHC17 / RFU, NOM1 / Fold change vs veh, NOM1 / RFU, ARL8B / Fold change vs veh, ARL8B / RFU, ZBTB11 / Fold change vs veh, ZBTB11 / RFU, TAMM41 / Fold change vs veh, TAMM41 / RFU, KIAA1704 /// LOC100996395 / Fold change vs veh, KIAA1704 /// LOC100996395 / RFU, ING1 / Fold change vs veh, ING1 / RFU, TRMT61B / Fold change vs veh, TRMT61B / RFU, FUBP3 / Fold change vs veh, FUBP3 / RFU, TP53 / Fold change vs veh, TP53 / RFU, TNKS2 / Fold change vs veh, TNKS2 / RFU, ZFP14 / Fold change vs veh, ZFP14 / RFU, ACTR2 / Fold change vs veh, ACTR2 / RFU, PPP3R1 / Fold change vs veh, PPP3R1 / RFU, PIK3R1 / Fold change vs veh, PIK3R1 / RFU, HNRNPA1 / Fold change vs veh, HNRNPA1 / RFU, RNF170 / Fold change vs veh, RNF170 / RFU, ZNF28 / Fold change vs veh, ZNF28 / RFU, RNGTT / Fold change vs veh, RNGTT / RFU, OGT / Fold change vs veh, OGT / RFU, BRD1 / Fold change vs veh, BRD1 / RFU, MARS / Fold change vs veh, MARS / RFU, ZNF655 / Fold change vs veh, ZNF655 / RFU, FAHD1 / Fold change vs veh, FAHD1 / RFU, BDP1 / Fold change vs veh, BDP1 / RFU, LRRCC1 / Fold change vs veh, LRRCC1 / RFU, ARID1A / Fold change vs veh, ARID1A / RFU, ZNF146 / Fold change vs veh, ZNF146 / RFU, ZNF330 / Fold change vs veh, ZNF330 / RFU, GPN3 / Fold change vs veh, GPN3 / RFU, C9orf123 / Fold change vs veh, C9orf123 / RFU, N4BP2L2 / Fold change vs veh, N4BP2L2 / RFU, ARFIP1 / Fold change vs veh, ARFIP1 / RFU, FAM179B / Fold change vs veh, FAM179B / RFU, BCL10 / Fold change vs veh, BCL10 / RFU, UHRF1BP1L / Fold change vs veh, UHRF1BP1L / RFU, BET1 / Fold change vs veh, BET1 / RFU, CNOT2 / Fold change vs veh, CNOT2 / RFU, ZNF268 / Fold change vs veh, ZNF268 / Fold change vs veh, ZNF507 / RFU, DGCR2 / Fold change vs veh, DGCR2 / RFU, WDSUB1 / Fold change vs veh, WDSUB1 / Fold change vs veh, HSP90B1 /// MIR3652 / RFU, ADSS / Fold change vs veh, ADSS / RFU, GK / Fold change vs veh, GK / RFU, ZNF148 / Fold change vs veh, ZNF148 / RFU, TAF9 / Fold change vs veh, TAF9 / RFU, SLC1A5 / Fold change vs veh, SLC1A5 / RFU, SLMO2 / Fold change vs veh, SLMO2 / RFU, ABCC4 / Fold change vs veh, ABCC4 / RFU, LOC101060439 /// RAP1B / Fold change vs veh, LOC101060439 /// RAP1B / RFU, RFX7 / Fold change vs veh, RFX7 / RFU, GTPBP10 / Fold change vs veh, GTPBP10 / RFU, CNEP1R1 / Fold change vs veh, CNEP1R1 / RFU, BIVM-ERCC5 /// ERCC5 / Fold change vs veh, BIVM-ERCC5 /// ERCC5 / RFU, ILF3 / Fold change vs veh, ILF3 / RFU 11762660_at / Fold change /veh 11762660_at / RFU VCAN (11757783_s_at) / Fold change /veh VCAN (11757783_s_at) / RFU DDX43 (11728927_at) / Fold change /veh DDX43 (11728927_at) / RFU KRT8 (11758188_x_at) / Fold change /veh KRT8 (11758188_x_at) / RFU NKD1 (11759106_at) / Fold change /veh NKD1 (11759106_at) / RFU SRD5A1 (11742802_a_at) / Fold change /veh SRD5A1 (11742802_a_at) / RFU TPSAB1 /// TPSB2 (11721975_s_at) / Fold change /veh TPSAB1 /// TPSB2 (11721975_s_at) / RFU GSTM3 (11746129_a_at) / Fold change /veh GSTM3 (11746129_a_at) / RFU IL23R (11737362_x_at) / Fold change /veh IL23R (11737362_x_at) / RFU TMEM51 (11727254_a_at) / Fold change /veh TMEM51 (11727254_a_at) / RFU PIWIL2 (11732686_x_at) / Fold change /veh PIWIL2 (11732686_x_at) / RFU ORM1 (11744905_x_at) / Fold change /veh ORM1 (11744905_x_at) / RFU CCDC152 (11743942_at) / Fold change /veh CCDC152 (11743942_at) / RFU ECM1 (11717891_a_at) / Fold change /veh ECM1 (11717891_a_at) / RFU IL23R (11748794_a_at) / Fold change /veh IL23R (11748794_a_at) / RFU TNFAIP8L3 (11732012_x_at) / Fold change /veh TNFAIP8L3 (11732012_x_at) / RFU MBOAT4 (11741988_at) / Fold change /veh MBOAT4 (11741988_at) / RFU 11764193_at / Fold change /veh 11764193_at / RFU TMEM53 (11763286_at) / Fold change /veh TMEM53 (11763286_at) / RFU MAGEB2 (11727129_at) / Fold change /veh MAGEB2 (11727129_at) / RFU TMEM200A (11744735_a_at) / Fold change /veh TMEM200A (11744735_a_at) / RFU CCDC152 (11751479_a_at) / Fold change /veh CCDC152 (11751479_a_at) / RFU FAM211A (11726209_a_at) / Fold change /veh FAM211A (11726209_a_at) / RFU RGS16 (11746705_a_at) / Fold change /veh RGS16 (11746705_a_at) / RFU VCAN (11755009_s_at) / Fold change /veh VCAN (11755009_s_at) / RFU RHOB (11743442_s_at) / Fold change /veh RHOB (11743442_s_at) / RFU RGS16 (11720943_a_at) / Fold change /veh RGS16 (11720943_a_at) / RFU RGS16 (11720944_at) / Fold change /veh RGS16 (11720944_at) / RFU, VPS4B / Fold change vs veh, VPS4B / RFU, CREB1 / Fold change vs veh, CREB1 / RFU, DNAJC13 / Fold change vs veh, DNAJC13 / RFU, GNAQ / Fold change vs veh, GNAQ / RFU, CDK5R1 / Fold change vs veh, CDK5R1 / RFU, ZRANB3 / Fold change vs veh, ZRANB3 / RFU, CUL4A / Fold change vs veh, CUL4A / RFU, CCNY / Fold change vs veh, CCNY / RFU, UFL1 / Fold change vs veh, UFL1 / RFU, COG3 / Fold change vs veh, COG3 / RFU, DIAPH2 / Fold change vs veh, DIAPH2 / RFU, SKA2 / Fold change vs veh, SKA2 / RFU, AFF3 / Fold change vs veh, AFF3 / RFU, LMF1 / Fold change vs veh, LMF1 / RFU, IPO11 / Fold change vs veh, IPO11 / RFU, DFFB / Fold change vs veh, DFFB / RFU, FOXP1 / Fold change vs veh, FOXP1 / RFU, CARD8 / Fold change vs veh, CARD8 / RFU, STRN3 / Fold change vs veh, STRN3 / RFU, ADK / Fold change vs veh, ADK / RFU, RASSF2 / Fold change vs veh, RASSF2 / RFU, WIPF1 / Fold change vs veh, WIPF1 / RFU, LARP1B / Fold change vs veh, LARP1B / RFU, RASA1 / Fold change vs veh, RASA1 / RFU, RB1 / Fold change vs veh, RB1 / RFU, PPFIA1 / Fold change vs veh, PPFIA1 / RFU, MAT2A / Fold change vs veh, MAT2A / RFU, CCT5 / Fold change vs veh, CCT5 / RFU, WDR92 / Fold change vs veh, WDR92 / RFU, CUX1 / Fold change vs veh, CUX1 / RFU, TTC7A / Fold change vs veh, TTC7A / RFU, TMEM135 / Fold change vs veh, TMEM135 / RFU, DEPTOR / Fold change vs veh, DEPTOR / RFU, CPM / Fold change vs veh, CPM / RFU, DNAJB6 / Fold change vs veh, DNAJB6 / RFU, CACNA2D3 / Fold change vs veh, CACNA2D3 / RFU, DTX4 / Fold change vs veh, DTX4 / RFU, TFCP2 / Fold change vs veh, TFCP2 / RFU, GMCL1 /// GMCL1P1 / Fold change vs veh, GMCL1 /// GMCL1P1 / RFU, AEBP2 / Fold change vs veh, AEBP2 / RFU, SNHG1 /// SNORD22 /// SNORD25 /// SNORD26 /// SNORD27 /// SNORD28 /// SNORD29 /// SNORD31 / Fold change vs veh, SNHG1 /// SNORD22 /// SNORD25 /// SNORD26 /// SNORD27 /// SNORD28 /// SNORD29 /// SNORD31 / Fold change (Aza/veh), C12orf56 (ProbeSet 11735607_a_at) / Fold change (ACY-1035/veh), C12orf56 (ProbeSet 11735607_a_at) / Fold change (Aza/veh), FGFR1OP (ProbeSet 11751329_s_at) / Fold change (ACY-1035/veh), FGFR1OP (ProbeSet 11751329_s_at) / Fold change (Aza/veh), VPS36 (ProbeSet 11739960_a_at) / Fold change (ACY-1035/veh), VPS36 (ProbeSet 11739960_a_at) / RFU SYPL1 (11715823_x_at) / Fold change /veh SYPL1 (11715823_x_at) / RFU IGFBP7 (11715501_s_at) / Fold change /veh IGFBP7 (11715501_s_at) / RFU REEP3 (11722064_at) / Fold change /veh REEP3 (11722064_at) / RFU IGLL1 (11728026_x_at) / Fold change /veh IGLL1 (11728026_x_at): dose or concentration left out as unconfirmed", "conditions": "ProbeSet 11722463_a_at; LIST B"}
{"smiles": "Nc1ccc(-c2cccs2)cc1NC(=O)c1ccc2c(c1)cc(C1CC1)n2CCN1CCOCC1", "note": "[ACY-1035]", "values": [{"measurement": "Fold change vs veh, TNKS2", "result": 0.96}]}
